≈ marks a conversion by molar mass, not a printed value.
Key:
[1] = Stability in human liver microsomes assessed as compound remaining after 30 mins; assay type: ADME, microsome; conditions: read-out: Stability
[2] = Stability in rat liver microsomes assessed as compound remaining after 30 mins; assay type: ADME, microsome; conditions: read-out: Stability
[3] = Solubility of the compound in phosphate buffered saline kept in shaker for 1 hr; assay type: physicochemical
[4] = Solubility of the compound in distilled water kept in shaker for 1 hr; assay type: physicochemical
HL-60 = experiment: cells; conditions: Homo sapiens
Description: Growth inhibition of human HL60 cells harboring wild-type FLT3 by CCK8 assay

K562 = experiment: cells; conditions: Homo sapiens
Description: Growth inhibition of FLT3 null human K562 cells by CCK8 assay

[5] = biological target: T1, Receptor-type tyrosine-protein kinase FLT3 (Homo sapiens, UniProt P36888); experiment: biochemical; assay type: cell-based
T1 sequence (P36888 whole entry): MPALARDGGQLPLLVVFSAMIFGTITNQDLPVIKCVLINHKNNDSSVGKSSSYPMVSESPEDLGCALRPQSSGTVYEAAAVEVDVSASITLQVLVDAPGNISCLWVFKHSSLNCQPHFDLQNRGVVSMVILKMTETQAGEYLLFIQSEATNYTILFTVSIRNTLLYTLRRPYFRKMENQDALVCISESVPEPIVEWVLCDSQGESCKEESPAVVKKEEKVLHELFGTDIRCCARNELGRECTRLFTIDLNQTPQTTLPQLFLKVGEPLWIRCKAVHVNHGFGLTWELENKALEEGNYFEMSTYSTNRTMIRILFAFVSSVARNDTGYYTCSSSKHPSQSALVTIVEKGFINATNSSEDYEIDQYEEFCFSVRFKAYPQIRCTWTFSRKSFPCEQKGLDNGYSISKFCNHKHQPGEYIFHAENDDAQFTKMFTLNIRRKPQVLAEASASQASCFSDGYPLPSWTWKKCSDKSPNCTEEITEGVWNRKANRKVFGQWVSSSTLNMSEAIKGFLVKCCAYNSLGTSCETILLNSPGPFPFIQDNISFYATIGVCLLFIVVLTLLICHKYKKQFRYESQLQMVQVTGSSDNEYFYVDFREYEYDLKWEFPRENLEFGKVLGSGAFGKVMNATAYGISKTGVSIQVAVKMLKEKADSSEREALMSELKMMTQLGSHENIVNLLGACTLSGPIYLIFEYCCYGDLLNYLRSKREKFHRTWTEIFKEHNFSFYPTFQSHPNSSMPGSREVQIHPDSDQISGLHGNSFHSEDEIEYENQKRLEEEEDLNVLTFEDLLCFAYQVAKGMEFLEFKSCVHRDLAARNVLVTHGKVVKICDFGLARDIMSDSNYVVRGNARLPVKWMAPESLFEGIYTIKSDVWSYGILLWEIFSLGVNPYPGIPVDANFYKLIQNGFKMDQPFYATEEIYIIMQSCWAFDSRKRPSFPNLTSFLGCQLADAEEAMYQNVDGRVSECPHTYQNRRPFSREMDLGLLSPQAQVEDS
Description: Inhibition of N-terminal GST-tagged recombinant human wild-type FLT3 (564 to end residues) expressed in baculovirus infected sf21 cells using Abltide as substrate in presence of [gamma33P]ATP after 10 mins by scintillation counting method

[6] = biological target: Receptor-type tyrosine-protein kinase FLT3 (Homo sapiens, UniProt P36888, D835Y); experiment: biochemical; assay type: cell-based
Description: Inhibition of N-terminal GST-tagged recombinant human wild-type FLT3 (564 to end residues) D835Y mutant expressed in baculovirus infected sf21 cells using Abltide as substrate in presence of [gamma33P]ATP after 10 mins by scintillation counting method

THP-1 = experiment: cells; conditions: Homo sapiens
Description: Growth inhibition of human THP1 cells harboring wild-type FLT3 by XTT assay

MV4-11 = experiment: cells; conditions: Homo sapiens
Description: Growth inhibition of human MV4-11 cells harboring FLT3-ITD mutant by XTT assay

Compound | remaining at 0.5 h [1] [%] | remaining at 0.5 h [2] [%] | solubility at 1 h [3] [µM] | solubility at 1 h [4] [µM] | GI50 (HL-60) [nM] | GI50 (K562) [nM] | IC50 [5] [nM] | IC50 [6] [nM] | GI50 (THP-1) [nM] | GI50 (MV4-11) [nM]
CC1=CC(=O)N(Nc2nc(-c3cccs3)nc3sc(C)c(C)c23)C1=O | 32.4 | 22.7 | 1.04 (≈ 0.385 µg/mL) | 1.28 (≈ 0.474 µg/mL) | > 10000 | 102 | – | – | – | –
CC1=CC(=O)N(Nc2nc(-c3cccs3)nc3sc(C)cc23)C1=O | 58.8 | 32.6 | 0.36 (≈ 0.128 µg/mL) | 5.84 (≈ 2.08 µg/mL) | > 10000 | 2570 | – | – | – | –
CNCCOc1ccc(-c2sc3nc(-c4cccs4)nc(NN4C(=O)C=C(C)C4=O)c3c2C)cc1 | – | – | – | – | – | – | 11.1 | – | – | –
CC1=CC(=O)N(Nc2nc(-c3ccc[nH]3)nc3sc(C)cc23)C1=O | 40.4 | 39.1 | 0.59 (≈ 0.2 µg/mL) | 10.1 (≈ 3.42 µg/mL) | – | – | 135 | 117 | – | –
CC1=CC(=O)N(Nc2nc(-c3ccc(F)cc3)nc3sc(C)cc23)C1=O | 42.6 | 8.58 | < 0.14 | < 0.14 | – | – | 274 | 266 | – | –
CC1=CC(=O)N(Nc2nc(-c3ccc[nH]3)nc3sc(C)c(C)c23)C1=O | 37.1 | 39.7 | 0.16 (≈ 0.0565 µg/mL) | 0.87 (≈ 0.307 µg/mL) | > 10000 | 1100 | 79.3 | 89.2 | 339 | 452
CC1=CC(=O)N(Nc2nc(-c3ccc(F)cc3)nc3sc(C)c(C)c23)C1=O | 20.7 | 19.6 | < 0.14 | < 0.14 | – | – | 211 | 172 | – | –
CC1=CC(=O)N(Nc2nc(-c3ccco3)nc3sc(C)cc23)C1=O | 35.1 | 34.8 | 28.5 (≈ 9.69 µg/mL) | 40.6 (≈ 13.8 µg/mL) | – | – | 171 | 129 | – | –
CC1=CC(=O)N(Nc2nc(-c3nccs3)nc3sc(C)cc23)C1=O | 27.5 | 14.5 | 2.8 (≈ 1 µg/mL) | 1.43 (≈ 0.511 µg/mL) | > 10000 | 1280 | 33.4 | 33.9 | 961 | 1350
CC1=CC(=O)N(Nc2nc(-c3ccco3)nc3sc(C)c(C)c23)C1=O | 10.9 | 26.2 | 12.4 (≈ 4.38 µg/mL) | 24.6 (≈ 8.73 µg/mL) | – | – | 100 | 102 | – | –
CC1=CC(=O)N(Nc2nc(-c3nccs3)nc3sc(C)c(C)c23)C1=O | 45.7 | 17.7 | 36.8 (≈ 13.7 µg/mL) | 25.3 (≈ 9.41 µg/mL) | > 10000 | 532 | 16 | 21.4 | 141 | 216
